# Where a name gives a salt, the structure may show the parent alone.
# Legend:
# SD female rats = experiment: Measurement of urethral resistance increasing effect (leak point pressure), intravenous administration; format: in vivo; conditions: rat, 0.3 mg/kg and 1.0 mg/kg, 10 min after administration, compared to vehicle (Williams' test)
# Experimental: Experimental Example 4 Measurement of Urethral Resistance Increasing Effect
# The urethral resistance increasing effect in rat was measured by a modified method of Matsumoto et al. (WO2009/063992) as follows. That is, SD female rats (CLEA Japan, Inc.) were anesthetized with isoflurane (1.0%; Abbott), and the spinal cord was transected at Th8-9 to avoid the voiding reflex. After laparotomy, an intravesical pressure measurement catheter and a saline infusion catheter (PE-100; Clay Adams) were inserted into the bladder. Thereafter, the abdomen of the rat was closed with aronalpha A “Sankyo” (Daiichi Sankyo). […] The intravesical pressure measurement catheter was connected to a computer via a pressure transducer (REF685640; Nihon Koden), an amplifier (RPM-6008M; Nihon Koden), and a multi-channel data analyzer (MP150; Biopack), and changes in the intravesical pressure were recorded on a hard disc at a frequency of 100 samples/sec. […] The LPP value (Pre value) was measured, a drug was intravenously administered, and the measurement of LPP value (Post value) was again started 10 min after administration. […]
# The compound of Example 6 (0.3 mg/kg), the compound of Example 6 (1.0 mg/kg) and the vehicle were administered to the rats, and the urethral resistance increasing effect was measured by the aforementioned method.
# [1] = target: T1, human serotonin transporter (Homo sapiens, UniProt P31645); experiment: Inhibitory action on human serotonin transporter ([3H]-5-hydroxytryptamine uptake in CHO cells); format: cell-based; conditions: relative to inhibitory activity of 10 μM Paroxetine as 100%, read-out: inhibitory rate (%)
# T1 construct: expressed in transfected cells
# T1 sequence (P31645 whole entry): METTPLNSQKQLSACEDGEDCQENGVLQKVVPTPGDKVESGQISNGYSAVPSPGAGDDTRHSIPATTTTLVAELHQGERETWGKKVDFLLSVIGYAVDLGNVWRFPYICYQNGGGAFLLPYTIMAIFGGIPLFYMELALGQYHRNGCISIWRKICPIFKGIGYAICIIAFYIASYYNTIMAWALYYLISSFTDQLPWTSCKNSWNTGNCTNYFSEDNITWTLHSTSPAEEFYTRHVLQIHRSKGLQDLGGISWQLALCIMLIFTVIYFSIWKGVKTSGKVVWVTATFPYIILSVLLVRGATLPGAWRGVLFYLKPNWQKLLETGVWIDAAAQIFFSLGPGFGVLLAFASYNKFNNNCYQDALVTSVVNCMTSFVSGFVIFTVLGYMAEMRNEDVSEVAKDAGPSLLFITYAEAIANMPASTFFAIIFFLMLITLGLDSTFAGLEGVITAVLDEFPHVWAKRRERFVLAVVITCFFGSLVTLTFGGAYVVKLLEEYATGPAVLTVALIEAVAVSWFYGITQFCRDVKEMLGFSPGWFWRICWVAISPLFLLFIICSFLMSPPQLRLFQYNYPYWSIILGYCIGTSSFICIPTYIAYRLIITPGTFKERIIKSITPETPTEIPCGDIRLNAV
# Text: (2) Preparation of Human Monoamine Expressing Cell
# (§1) Human serotonin transporter cDNA was amplified from human brain cDNA library by PCR, and inserted into pCRII-TOPO vector (manufactured by Invitrogen). The base sequence was confirmed and modified, and subcloned to pcDNA3.1 vector (manufactured by Invitrogen), whereby a human serotonin transporter expression plasmid was constructed. Human norepinephrine transporter cDNA was purchased from Invitrogen, and the base sequence was confirm and modified, and subcloned to pcDNA3.1 vector, whereby a human norepinephrine transporter expression plasmid was constructed. […]
# (§2) The cultured cells that reached almost confluent were rinsed with PBS (Invitrogen), detached with Trypsin/EDTA (Invitrogen), and collected by a centrifugal operation. The obtained cells were counted, and diluted to 3×10^5 cells per 1 mL medium, the mixture was dispensed to a 96 well white plate (Corning) at 100 μL per well, and cultured overnight in a CO2 incubator.
# (§3) Then, an assay buffer (126 mM NaCl, 4.95 mM KCl, 1.26 mM KH2PO4, 1.26 mM MgSO4, 10 mM HEPES, 2.32 mM CaCl2, 5.52 mM Glucose, 0.5% BSA) was prepared, the medium in the cell plate was removed and the assay buffer was added by 80 μL. […] The radioactivity was measured by TopCount (PerkinElmer). […]
# [2] = target: T2, human dopamine transporter (Homo sapiens, UniProt Q01959); experiment: Inhibitory action on human dopamine transporter ([3H]-dopamine uptake in CHO cells); format: cell-based; conditions: relative to inhibitory activity of 100 μM Nomifensine as 100%, read-out: inhibitory rate (%)
# T2 construct: expressed in transfected cells
# T2 sequence (Q01959 whole entry): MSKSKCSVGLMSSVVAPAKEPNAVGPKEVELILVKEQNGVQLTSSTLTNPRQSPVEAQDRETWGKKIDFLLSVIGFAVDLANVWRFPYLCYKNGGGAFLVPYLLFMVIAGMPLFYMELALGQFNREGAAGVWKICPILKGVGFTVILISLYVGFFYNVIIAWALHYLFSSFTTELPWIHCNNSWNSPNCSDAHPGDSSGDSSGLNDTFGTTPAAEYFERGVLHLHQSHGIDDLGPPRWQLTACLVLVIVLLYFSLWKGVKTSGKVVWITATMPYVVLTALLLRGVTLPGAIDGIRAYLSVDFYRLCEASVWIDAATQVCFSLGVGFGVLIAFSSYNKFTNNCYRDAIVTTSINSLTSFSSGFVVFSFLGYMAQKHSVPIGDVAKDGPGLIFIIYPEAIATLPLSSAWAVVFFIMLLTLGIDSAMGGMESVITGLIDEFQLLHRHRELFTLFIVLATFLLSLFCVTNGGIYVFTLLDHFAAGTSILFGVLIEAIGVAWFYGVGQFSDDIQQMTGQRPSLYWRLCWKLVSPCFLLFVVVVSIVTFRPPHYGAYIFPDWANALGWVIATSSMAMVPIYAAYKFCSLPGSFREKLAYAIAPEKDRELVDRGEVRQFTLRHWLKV
# Text: (1) Construction of Human Dopamine Transporter Expression Plasmid
# SRα promoter contained in pTB1411 described in JP-A-H5-076385 was cleaved with restriction enzyme HindIII (manufactured by TAKARA BIO INC.), blunt-ended, further cleaved with restriction enzyme EcoRI (manufactured by TAKARA BIO INC.), and fragmented. On the other hand, pCI vector was cleaved with restriction enzyme BglII (manufactured by TAKARA BIO INC.), blunt-ended with T4 DNA polymerase, and further cleaved with restriction enzyme EcoRI (manufactured by TAKARA BIO INC.). Into this site was inserted an SRα promoter fragment to give pCI-SRa. […]
# as §2, with “One day before the assay, the cultured” for “The cultured”, “medium, and” for “medium,”
# as §3, with “On the day of the test,” for “Then,”
# [3] = target: human norepinephrine transporter (Homo sapiens, UniProt P23975); experiment: Inhibitory action on human norepinephrine transporter ([3H]-norepinephrine uptake in CHO cells); format: cell-based; conditions: relative to inhibitory activity of 10 μM DMI as 100%, read-out: inhibitory rate (%)
# human norepinephrine transporter, sequence (P23975 whole entry): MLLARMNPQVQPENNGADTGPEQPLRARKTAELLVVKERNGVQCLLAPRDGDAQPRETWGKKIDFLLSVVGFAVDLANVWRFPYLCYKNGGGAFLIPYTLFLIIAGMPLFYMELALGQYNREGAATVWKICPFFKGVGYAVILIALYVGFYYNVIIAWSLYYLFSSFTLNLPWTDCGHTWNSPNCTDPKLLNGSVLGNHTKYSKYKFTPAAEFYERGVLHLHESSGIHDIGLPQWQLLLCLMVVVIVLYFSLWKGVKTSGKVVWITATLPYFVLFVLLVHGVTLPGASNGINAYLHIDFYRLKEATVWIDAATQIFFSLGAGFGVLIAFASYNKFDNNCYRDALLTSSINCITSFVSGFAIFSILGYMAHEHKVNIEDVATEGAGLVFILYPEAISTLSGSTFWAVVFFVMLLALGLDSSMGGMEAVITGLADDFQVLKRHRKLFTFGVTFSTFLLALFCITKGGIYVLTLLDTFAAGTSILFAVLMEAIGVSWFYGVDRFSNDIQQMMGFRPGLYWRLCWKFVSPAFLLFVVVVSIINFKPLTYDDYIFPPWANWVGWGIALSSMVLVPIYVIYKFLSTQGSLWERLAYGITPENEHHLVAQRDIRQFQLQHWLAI
# Text: as §1
# as §2, with “medium, and” for “medium,”
# as §3
SMILES,urethral resistance increasing effect (LPP Post value minus Pre value) (SD female rats),inhibition at 1 µM ([1]; compound 1 μM) [%],"inhibition at 10 µM ([1]; compound 10 μM, CHO cells expressing human serotonin transporter) [%]",inhibition at 1 µM ([2]; compound 1 μM) [%],inhibition at 10 µM ([2]; compound 10 μM) [%],inhibition at 1 µM ([3]; compound 1 μM) [%],inhibition at 10 µM ([3]; compound 10 μM) [%]
"CC(=O)NC[C@H]1CNCCO[C@@H]1c1ccc(Cl)c(Cl)c1 (racemic) [Example 6, N-{[(6RS,7SR)-7-(3,4-dichlorophenyl)-1,4-oxazepan-6-yl]methyl}acetamide monohydrochloride]",dose-dependent and significant urethral resistance increasing effect,,,,,,
"OC[C@H]1NCCOC[C@@H]1c1ccc(Cl)c(Cl)c1 (racemic) [Example 14, [(5RS,6SR)-6-(3,4-dichlorophenyl)-1,4-oxazepan-5-yl]methanol monohydrochloride]",,31,79,87,99,98,100

# — patent publication US8722662B2, “Heterocyclic compounds” (Takeda Pharmaceutical Company Limited, priority 2010, dated 2014)
